Test system: MV-4-11 cells
Experiment: Gene expression microarray analysis (Affymetrix PrimeView) and GSEA
Format: cell-based, human
Design: RFU PODN (11730768_x_at) / Fold change /veh PODN (11730768_x_at) / RFU LINC00158 (11744669_a_at) / Fold change /veh LINC00158 (11744669_a_at) / RFU DUSP10 (11751237_a_at) / Fold change /veh DUSP10 (11751237_a_at) / RFU ID3 (11757404_x_at) / Fold change /veh ID3 (11757404_x_at) / RFU PLEKHG5 (11737974_s_at) / Fold change /veh PLEKHG5 (11737974_s_at) / RFU LRRC4B (11730491_at) / Fold change /veh LRRC4B (11730491_at) / RFU GIMAP4 (11747438_a_at) / Fold change /veh GIMAP4 (11747438_a_at) / RFU KRT8 (11758183_x_at) / Fold change /veh KRT8 (11758183_x_at) / RFU CNN1 (11734310_a_at) / Fold change /veh CNN1 (11734310_a_at) / RFU VPS37D (11726825_at) / Fold change /veh VPS37D (11726825_at) / RFU C10orf10 (11716522_x_at) / Fold change /veh C10orf10 (11716522_x_at) / RFU KIR2DL2 /// KIR2DL4 /// KIR2DL5A /// KIR2DL5B /// KIR2DS1 /// KIR2DS2 /// KIR2DS3 /// KIR2DS4 /// KIR3DL3 /// KIR3DL3 /// KIR3DS1 (11738374_at) / Fold change /veh KIR2DL2 /// KIR2DL4 /// KIR2DL5A /// KIR2DL5B /// KIR2DS1 /// KIR2DS2 /// KIR2DS3 /// KIR2DS4 /// KIR3DL3 /// KIR3DL3 /// KIR3DS1 (11738374_at) / RFU C1QL1 (11718748_at) / Fold change /veh C1QL1 (11718748_at) / RFU TMPRSS4 (11747572_a_at) / Fold change /veh TMPRSS4 (11747572_a_at) / RFU HAMP (11756126_x_at) / Fold change /veh HAMP (11756126_x_at) / RFU RNFT2 (11725882_a_at) / Fold change /veh RNFT2 (11725882_a_at) / RFU NR4A2 (11747474_a_at) / Fold change /veh NR4A2 (11747474_a_at) / RFU ABCC12 (11746883_a_at) / Fold change /veh ABCC12 (11746883_a_at) / RFU TMEM136 (11760407_x_at) / Fold change /veh TMEM136 (11760407_x_at) / RFU CLDN22 /// WWC2 (11732394_at) / Fold change /veh CLDN22 /// WWC2 (11732394_at) / RFU HLA-DPB1 (11760878_x_at) / Fold change /veh HLA-DPB1 (11760878_x_at) / RFU SPINT1 (11716480_a_at) / Fold change /veh SPINT1 (11716480_a_at) / RFU GAP43 (11754022_s_at) / Fold change /veh GAP43 (11754022_s_at) / RFU A4GNT (11735810_at) / Fold change /veh A4GNT (11735810_at) / RFU PRB3 (11715151_x_at) / Fold change /veh PRB3 (11715151_x_at) / RFU TUBB4B (11761932_at) / Fold change /veh TUBB4B (11761932_at) / RFU CAPN14 (11732068_a_at) / Fold change /veh CAPN14 (11732068_a_at) / RFU TMCC2 (11721928_a_at) / Fold change /veh TMCC2 (11721928_a_at) / RFU IRGQ (11745062_a_at) / Fold change /veh IRGQ (11745062_a_at) / RFU FAM174B (11720279_a_at) / Fold change /veh FAM174B (11720279_a_at) / RFU TMPRSS4 (11748680_a_at) / Fold change /veh TMPRSS4 (11748680_a_at) / RFU FAM212B (11763350_a_at) / Fold change /veh FAM212B (11763350_a_at) / RFU PLEKHG5 (11743358_a_at) / Fold change /veh PLEKHG5 (11743358_a_at) / RFU ZSCAN30 (11745921_a_at) / Fold change /veh ZSCAN30 (11745921_a_at) / RFU CMKLR1 (11741424_a_at) / Fold change /veh CMKLR1 (11741424_a_at) / RFU LOC101060620 /// MAPK8IP1 (11723275_at) / Fold change /veh LOC101060620 /// MAPK8IP1 (11723275_at) / RFU SPTSSB (11747773_x_at) / Fold change /veh SPTSSB (11747773_x_at) / RFU PRSS12 (11739890_at) / Fold change /veh PRSS12 (11739890_at) / RFU BIN1 (11741810_x_at) / Fold change /veh BIN1 (11741810_x_at) / RFU WNT11 (11732464_a_at) / Fold change /veh WNT11 (11732464_a_at) / RFU C10orf10 (11716521_a_at) / Fold change /veh C10orf10 (11716521_a_at) / RFU C5orf56 (11738089_at) / Fold change /veh C5orf56 (11738089_at) / RFU CYB561 (11721691_x_at) / Fold change /veh CYB561 (11721691_x_at) / RFU ANKRD19P (11752326_a_at) / Fold change /veh ANKRD19P (11752326_a_at) / RFU OR2T12 /// OR2T33 /// OR2T8 (11738714_s_at) / Fold change /veh OR2T12 /// OR2T33 /// OR2T8 (11738714_s_at) / RFU VCAN (11748164_a_at) / Fold change /veh VCAN (11748164_a_at) / RFU JSRP1 (11732532_at) / Fold change /veh JSRP1 (11732532_at) / RFU KRTAP10-11 (11738290_x_at) / Fold change /veh KRTAP10-11 (11738290_x_at) / RFU MYO3A (11730013_a_at) / Fold change /veh MYO3A (11730013_a_at) / RFU EBF3 (11725865_a_at) / Fold change /veh EBF3 (11725865_a_at) / RFU CAMK2N1 (11719241_x_at) / Fold change /veh CAMK2N1 (11719241_x_at) / RFU C5orf56 (11738088_a_at) / Fold change /veh C5orf56 (11738088_a_at) / RFU OLFML3 (11715873_a_at) / Fold change /veh OLFML3 (11715873_a_at) / RFU LOC100653217 /// NTM (11731650_a_at) / Fold change /veh LOC100653217 /// NTM (11731650_a_at) / RFU MAPK11 (11762145_a_at) / Fold change /veh MAPK11 (11762145_a_at) / RFU FIZ1 (11724087_x_at) / Fold change /veh FIZ1 (11724087_x_at) / RFU OASL (11726364_x_at) / Fold change /veh OASL (11726364_x_at) / RFU SOX15 (11748057_x_at) / Fold change /veh SOX15 (11748057_x_at) / RFU CD79A (11719716_a_at) / Fold change /veh CD79A (11719716_a_at) / RFU HIST1H1D (11736915_at) / Fold change /veh HIST1H1D (11736915_at) / RFU CASKIN2 (11723855_a_at) / Fold change /veh CASKIN2 (11723855_a_at) / RFU LOC730098 (11760151_x_at) / Fold change /veh LOC730098 (11760151_x_at) / RFU OR4N2 (11742367_at) / Fold change /veh OR4N2 (11742367_at) / RFU PRRT2 (11749266_a_at) / Fold change /veh PRRT2 (11749266_a_at) / RFU SNX32 (11753110_a_at) / Fold change /veh SNX32 (11753110_a_at) / RFU CDHR5 (11726645_a_at) / Fold change /veh CDHR5 (11726645_a_at) / RFU RCAN1 (11760418_a_at) / Fold change /veh RCAN1 (11760418_a_at) / RFU FAM167A (11723789_a_at) / Fold change /veh FAM167A (11723789_a_at) / RFU FAM26E (11764081_at) / Fold change /veh FAM26E (11764081_at) / RFU ISYNA1 (11749810_s_at) / Fold change /veh ISYNA1 (11749810_s_at) / RFU ACY1 (11761880_at) / Fold change /veh ACY1 (11761880_at) / RFU 11764098_at / Fold change /veh 11764098_at / RFU SAMD14 (11745864_x_at) / Fold change /veh SAMD14 (11745864_x_at) / RFU NPB (11741838_a_at) / Fold change /veh NPB (11741838_a_at) / RFU TMPRSS6 (11731388_a_at) / Fold change /veh TMPRSS6 (11731388_a_at) / RFU KRTAP10-2 (11738614_at) / Fold change /veh KRTAP10-2 (11738614_at) / RFU ARHGAP8 /// PRR5-ARHGAP8 (11727945_x_at) / Fold change /veh ARHGAP8 /// PRR5-ARHGAP8 (11727945_x_at) / RFU KRTAP5-7 /// NADSYN1 (11734609_at) / Fold change /veh KRTAP5-7 /// NADSYN1 (11734609_at) / RFU RASL12 (11751679_a_at) / Fold change /veh RASL12 (11751679_a_at) / RFU CDKN2B (11736163_a_at) / Fold change /veh CDKN2B (11736163_a_at) / RFU PRF1 (11729649_at) / Fold change /veh PRF1 (11729649_at) / RFU, ZNF638 /// ZNF638-IT1 / Fold change vs veh, ZNF638 /// ZNF638-IT1 / RFU, PANK3 / Fold change vs veh, PANK3 / RFU, SH3YL1 / Fold change vs veh, SH3YL1 / RFU, ZEB2 / Fold change vs veh, ZEB2 / RFU, NRIP1 / Fold change vs veh, NRIP1 / RFU, PTTG1IP / Fold change vs veh, PTTG1IP / RFU, CAPN2 / Fold change vs veh, CAPN2 / RFU, MED14 / Fold change vs veh, MED14 / RFU, SNORA58 / Fold change vs veh, SNORA58 / RFU, C1orf63 / Fold change vs veh, C1orf63 / RFU, LRRFIP1 / Fold change vs veh, LRRFIP1 / RFU, NDUFAF7 / Fold change vs veh, NDUFAF7 / RFU, SLC12A2 / Fold change vs veh, SLC12A2 / RFU, IBTK / Fold change vs veh, IBTK / RFU, ESF1 / Fold change vs veh, ESF1 / Fold change vs veh, TMEM50B / RFU, TAOK1 / Fold change vs veh, TAOK1 / RFU, ACBD3 / Fold change vs veh, ACBD3 / RFU, TMA16 / Fold change vs veh, TMA16 / RFU, RWDD3 / Fold change vs veh, RWDD3 / RFU, BCAT1 / Fold change vs veh, BCAT1 / RFU, EDEM3 / Fold change vs veh, EDEM3 / RFU, TMEM33 / Fold change vs veh, TMEM33 / RFU, WDR75 / Fold change vs veh, WDR75 / RFU, AHCTF1 / Fold change vs veh, AHCTF1 / RFU, TFRC / Fold change vs veh, TFRC / RFU, ZDHHC17 / Fold change vs veh, ZDHHC17 / RFU, NOM1 / Fold change vs veh, NOM1 / RFU, ARL8B / Fold change vs veh, ARL8B / RFU, ZBTB11 / Fold change vs veh, ZBTB11 / RFU, TAMM41 / Fold change vs veh, TAMM41 / RFU, KIAA1704 /// LOC100996395 / Fold change vs veh, KIAA1704 /// LOC100996395 / RFU, ING1 / Fold change vs veh, ING1 / RFU, TRMT61B / Fold change vs veh, TRMT61B / RFU, FUBP3 / Fold change vs veh, FUBP3 / RFU, TP53 / Fold change vs veh, TP53 / RFU, TNKS2 / Fold change vs veh, TNKS2 / RFU, ZFP14 / Fold change vs veh, ZFP14 / RFU, ACTR2 / Fold change vs veh, ACTR2 / RFU, PPP3R1 / Fold change vs veh, PPP3R1 / RFU, PIK3R1 / Fold change vs veh, PIK3R1 / RFU, HNRNPA1 / Fold change vs veh, HNRNPA1 / RFU, RNF170 / Fold change vs veh, RNF170 / RFU, ZNF28 / Fold change vs veh, ZNF28 / RFU, RNGTT / Fold change vs veh, RNGTT / RFU, OGT / Fold change vs veh, OGT / RFU, BRD1 / Fold change vs veh, BRD1 / RFU, MARS / Fold change vs veh, MARS / RFU, ZNF655 / Fold change vs veh, ZNF655 / RFU, FAHD1 / Fold change vs veh, FAHD1 / RFU, BDP1 / Fold change vs veh, BDP1 / RFU, LRRCC1 / Fold change vs veh, LRRCC1 / RFU, ARID1A / Fold change vs veh, ARID1A / RFU, ZNF146 / Fold change vs veh, ZNF146 / RFU, ZNF330 / Fold change vs veh, ZNF330 / RFU, GPN3 / Fold change vs veh, GPN3 / RFU, C9orf123 / Fold change vs veh, C9orf123 / RFU, N4BP2L2 / Fold change vs veh, N4BP2L2 / RFU, ARFIP1 / Fold change vs veh, ARFIP1 / RFU, FAM179B / Fold change vs veh, FAM179B / RFU, BCL10 / Fold change vs veh, BCL10 / RFU, UHRF1BP1L / Fold change vs veh, UHRF1BP1L / RFU, BET1 / Fold change vs veh, BET1 / RFU, CNOT2 / Fold change vs veh, CNOT2 / RFU, ZNF268 / Fold change vs veh, ZNF268 / Fold change vs veh, ZNF507 / RFU, DGCR2 / Fold change vs veh, DGCR2 / RFU, WDSUB1 / Fold change vs veh, WDSUB1 / Fold change vs veh, HSP90B1 /// MIR3652 / RFU, ADSS / Fold change vs veh, ADSS / RFU, GK / Fold change vs veh, GK / RFU, ZNF148 / Fold change vs veh, ZNF148 / RFU, TAF9 / Fold change vs veh, TAF9 / RFU, SLC1A5 / Fold change vs veh, SLC1A5 / RFU, SLMO2 / Fold change vs veh, SLMO2 / RFU, ABCC4 / Fold change vs veh, ABCC4 / RFU, LOC101060439 /// RAP1B / Fold change vs veh, LOC101060439 /// RAP1B / RFU, RFX7 / Fold change vs veh, RFX7 / RFU, GTPBP10 / Fold change vs veh, GTPBP10 / RFU, CNEP1R1 / Fold change vs veh, CNEP1R1 / RFU, BIVM-ERCC5 /// ERCC5 / Fold change vs veh, BIVM-ERCC5 /// ERCC5 / RFU, ILF3 / Fold change vs veh, ILF3 / RFU 11762660_at / Fold change /veh 11762660_at / RFU VCAN (11757783_s_at) / Fold change /veh VCAN (11757783_s_at) / RFU DDX43 (11728927_at) / Fold change /veh DDX43 (11728927_at) / RFU KRT8 (11758188_x_at) / Fold change /veh KRT8 (11758188_x_at) / RFU NKD1 (11759106_at) / Fold change /veh NKD1 (11759106_at) / RFU SRD5A1 (11742802_a_at) / Fold change /veh SRD5A1 (11742802_a_at) / RFU TPSAB1 /// TPSB2 (11721975_s_at) / Fold change /veh TPSAB1 /// TPSB2 (11721975_s_at) / RFU GSTM3 (11746129_a_at) / Fold change /veh GSTM3 (11746129_a_at) / RFU IL23R (11737362_x_at) / Fold change /veh IL23R (11737362_x_at) / RFU TMEM51 (11727254_a_at) / Fold change /veh TMEM51 (11727254_a_at) / RFU PIWIL2 (11732686_x_at) / Fold change /veh PIWIL2 (11732686_x_at) / RFU ORM1 (11744905_x_at) / Fold change /veh ORM1 (11744905_x_at) / RFU CCDC152 (11743942_at) / Fold change /veh CCDC152 (11743942_at) / RFU ECM1 (11717891_a_at) / Fold change /veh ECM1 (11717891_a_at) / RFU IL23R (11748794_a_at) / Fold change /veh IL23R (11748794_a_at) / RFU TNFAIP8L3 (11732012_x_at) / Fold change /veh TNFAIP8L3 (11732012_x_at) / RFU MBOAT4 (11741988_at) / Fold change /veh MBOAT4 (11741988_at) / RFU 11764193_at / Fold change /veh 11764193_at / RFU TMEM53 (11763286_at) / Fold change /veh TMEM53 (11763286_at) / RFU MAGEB2 (11727129_at) / Fold change /veh MAGEB2 (11727129_at) / RFU TMEM200A (11744735_a_at) / Fold change /veh TMEM200A (11744735_a_at) / RFU CCDC152 (11751479_a_at) / Fold change /veh CCDC152 (11751479_a_at) / RFU FAM211A (11726209_a_at) / Fold change /veh FAM211A (11726209_a_at) / RFU RGS16 (11746705_a_at) / Fold change /veh RGS16 (11746705_a_at) / RFU VCAN (11755009_s_at) / Fold change /veh VCAN (11755009_s_at) / RFU RHOB (11743442_s_at) / Fold change /veh RHOB (11743442_s_at) / RFU RGS16 (11720943_a_at) / Fold change /veh RGS16 (11720943_a_at) / RFU RGS16 (11720944_at) / Fold change /veh RGS16 (11720944_at) / RFU, VPS4B / Fold change vs veh, VPS4B / RFU, CREB1 / Fold change vs veh, CREB1 / RFU, DNAJC13 / Fold change vs veh, DNAJC13 / RFU, GNAQ / Fold change vs veh, GNAQ / RFU, CDK5R1 / Fold change vs veh, CDK5R1 / RFU, ZRANB3 / Fold change vs veh, ZRANB3 / RFU, CUL4A / Fold change vs veh, CUL4A / RFU, CCNY / Fold change vs veh, CCNY / RFU, UFL1 / Fold change vs veh, UFL1 / RFU, COG3 / Fold change vs veh, COG3 / RFU, DIAPH2 / Fold change vs veh, DIAPH2 / RFU, SKA2 / Fold change vs veh, SKA2 / RFU, AFF3 / Fold change vs veh, AFF3 / RFU, LMF1 / Fold change vs veh, LMF1 / RFU, IPO11 / Fold change vs veh, IPO11 / RFU, DFFB / Fold change vs veh, DFFB / RFU, FOXP1 / Fold change vs veh, FOXP1 / RFU, CARD8 / Fold change vs veh, CARD8 / RFU, STRN3 / Fold change vs veh, STRN3 / RFU, ADK / Fold change vs veh, ADK / RFU, RASSF2 / Fold change vs veh, RASSF2 / RFU, WIPF1 / Fold change vs veh, WIPF1 / RFU, LARP1B / Fold change vs veh, LARP1B / RFU, RASA1 / Fold change vs veh, RASA1 / RFU, RB1 / Fold change vs veh, RB1 / RFU, PPFIA1 / Fold change vs veh, PPFIA1 / RFU, MAT2A / Fold change vs veh, MAT2A / RFU, CCT5 / Fold change vs veh, CCT5 / RFU, WDR92 / Fold change vs veh, WDR92 / RFU, CUX1 / Fold change vs veh, CUX1 / RFU, TTC7A / Fold change vs veh, TTC7A / RFU, TMEM135 / Fold change vs veh, TMEM135 / RFU, DEPTOR / Fold change vs veh, DEPTOR / RFU, CPM / Fold change vs veh, CPM / RFU, DNAJB6 / Fold change vs veh, DNAJB6 / RFU, CACNA2D3 / Fold change vs veh, CACNA2D3 / RFU, DTX4 / Fold change vs veh, DTX4 / RFU, TFCP2 / Fold change vs veh, TFCP2 / RFU, GMCL1 /// GMCL1P1 / Fold change vs veh, GMCL1 /// GMCL1P1 / RFU, AEBP2 / Fold change vs veh, AEBP2 / RFU, SNHG1 /// SNORD22 /// SNORD25 /// SNORD26 /// SNORD27 /// SNORD28 /// SNORD29 /// SNORD31 / Fold change vs veh, SNHG1 /// SNORD22 /// SNORD25 /// SNORD26 /// SNORD27 /// SNORD28 /// SNORD29 /// SNORD31 / Fold change (Aza/veh), C12orf56 (ProbeSet 11735607_a_at) / Fold change (ACY-1035/veh), C12orf56 (ProbeSet 11735607_a_at) / Fold change (Aza/veh), FGFR1OP (ProbeSet 11751329_s_at) / Fold change (ACY-1035/veh), FGFR1OP (ProbeSet 11751329_s_at) / Fold change (Aza/veh), VPS36 (ProbeSet 11739960_a_at) / Fold change (ACY-1035/veh), VPS36 (ProbeSet 11739960_a_at) / RFU SYPL1 (11715823_x_at) / Fold change /veh SYPL1 (11715823_x_at) / RFU IGFBP7 (11715501_s_at) / Fold change /veh IGFBP7 (11715501_s_at) / RFU REEP3 (11722064_at) / Fold change /veh REEP3 (11722064_at) / RFU IGLL1 (11728026_x_at) / Fold change /veh IGLL1 (11728026_x_at): dose or concentration left out as unconfirmed
Settings: MV-4-11 cells, 48 hours

## Nc1ncn([C@@H]2O[C@H](CO)[C@@H](O)[C@H]2O)c(=O)n1 [azacitidine]
  RFU ZSCAN30 (11745921_a_at): 8.95 RFU
